From patent publication US10322188B2, “Cell-penetrating drug carrier and the application thereof” (National Central University, priority 2014, dated 2019)
Ends that are not written are not given here.

Assays:
[1] = system: HepG2 cells; assay: Cell viability of HepG2 cells incubated with peptide, DOX or a mixture for 1 hour and 6 hours; type: cell-based; details: 25 µM peptide, 25 µM DOX or mixed solution of both; incubating for 1 hour and 6 hours; FIG. 1A
Protocol: In this example, HepG2 cells are individually incubated in 25 µM peptide solution, 25 µM DOX, and a mixed solution of 25 µM DOX and 25 µM peptide. And the cell viability of the mentioned HepG2 cells is followed after incubating for 1 hour and 6 hours.

[2] = system: HepG2 cell; assay: Cytotoxicity test on HepG2 cells, 24 hours; type: cell-based; details: acted on HepG2 cell for 24 hour; FIG. 10
Protocol: (§1) In this example, HepG2 cells are individually incubated in DOX, DOX and IL-R57F89 mixed solution, and IL-R57F89-DOX for 1 hour, and measured the fluorescence intensity as FIG. 3.
DOX and PEG5K-GPLGI-P17-DOX are processed cytotoxicity test.

[3] = system: HepG2 cells; assay: DOX fluorescence intensity in HepG2 cytoplasm (intracellular translocation); type: cell-based; details: incubating time from 1 hour to 6 hours; FIG. 1B
Protocol: Besides, in order to ensure whether the cell-penetrating peptide is helpful to the translocation of DOX, after incubating for 1 to 6 hours, the DOX fluorescence intensity of in HepG2 tumor cell cytoplasm is measured and shown as FIG. 1B.
as §1

[4] = molecular target: T1, MMP-2 (Homo sapiens, UniProt P08253); assay: Digestion of recognizable sequence by MMP-2, followed by RPC / RP-HPLC; type: biochemical
T1 sequence (P08253 110-660): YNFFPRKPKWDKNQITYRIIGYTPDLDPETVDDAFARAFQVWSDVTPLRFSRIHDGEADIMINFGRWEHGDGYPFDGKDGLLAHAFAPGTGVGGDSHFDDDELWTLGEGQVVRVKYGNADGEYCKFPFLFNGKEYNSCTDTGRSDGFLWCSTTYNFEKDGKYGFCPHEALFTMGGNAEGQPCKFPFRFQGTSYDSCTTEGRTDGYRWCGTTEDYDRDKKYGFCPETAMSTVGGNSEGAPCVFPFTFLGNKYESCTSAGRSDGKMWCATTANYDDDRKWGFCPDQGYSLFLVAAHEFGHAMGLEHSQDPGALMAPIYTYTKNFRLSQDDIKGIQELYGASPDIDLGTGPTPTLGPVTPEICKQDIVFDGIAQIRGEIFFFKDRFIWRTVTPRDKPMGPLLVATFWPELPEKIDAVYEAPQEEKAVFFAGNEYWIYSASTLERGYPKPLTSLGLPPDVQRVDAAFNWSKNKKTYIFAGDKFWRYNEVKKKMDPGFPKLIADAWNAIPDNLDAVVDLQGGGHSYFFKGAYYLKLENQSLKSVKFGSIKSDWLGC
Protocol: In the experiment of employing MMP-2 to cut/digest recognizable sequence, after individually adding tryptophan (abbreviated symbol as “W”) at the C-terminus and the N-terminus of the recognizable sequence, the digestion of the recognizable sequence by MMP-2 can be followed by the character absorption wave length at 280 nm.
FIG. 4A to FIG. 4C respectively presents the reversed 1phase chromatography (RPC) analysis of 100 µM P1, P2, and P4 in Table 1 digested by 1 g/mL MMP-2. The gradient elution is 0-100% ACN, 50 min. […] Another recognizable sequence P4 with the same length as P3 and different amino acid fragments is designed.
The ILPW fragment from P4 digestion and the first four amino acid fragment of IL-R57F89 are the same. There are two MMP-2 cut-able sequences, GPLSI-P17 and GPLGI-P17, designed with the sequence individually as GPLS-ILPWRWRFFPWRR (SEQ ID NO: 11) and GPLG-ILPWRWRFFPWRR (SEQ ID NO: 10). The RP-HPLC analysis of GPLSI-P17 and GPLGI-P17 digested by MMP-2 are shown as FIG. 5A and FIG. 5B. It should be noticed that we ensure the peak of IL-R57F89 before the digestion of GPLSI-P17 and GPLGI-P17. […] Therefore, GPLSI-P17 and GPLGI-P17 can be employed as the recognizable sequence of this application.
Including providing protection to recognizable sequence-CPP, proper PEG length will not impact the anchoring of the target cell to the recognizable sequence. Therefore, we try to finger out the effect of the PEG length to the following anchoring. PEG5K-GPLSI-P17 and PEG5K-GPLGI-P17 are individually dissolved in pH 7.4 HEPES buffer. MMP-2 is added into the above solutions and the final concentration is about 1 g/mL. The solutions are independently reacted at 37° C. for 24 hours. The reaction results are analyzed by RPC and shown as FIG. 8A and FIG. 8B.

[5] = system: trypsin; assay: Protease stability test: trypsin digestion followed by RPC-UV280; type: in vitro ADME
Text: It can be expected that drug carrier in vivo circulation will face to many bio-enzymes, wherein those bio-enzymes will cut the drug carrier. Before designing proper protection to those bio-enzymes, we hope to finger out the cutting result of the recognizable sequence-CPP (cell-penetrating peptide) by bio-enzymes. In this example, trypsin is employed as the bio-enzyme. Trypsin is a protease with selectivity, especially for cutting the carboxyl side of arginine (R) or lysine (K) of protein or peptide. In this example, when CPP is IL-R57F89, there are four arginine fragments in CPP being able to be cut by trypsin. Those four arginine fragments are R5, R7, R12, and R13.
FIG. 6A and FIG. 6B are respectively the RPC-UV280 spectra of IL-R57F89 and GPLSI-P17 digested by 0.1 g/mL trypsin. The gradient elution is 20-70% ACN, 5-30 min. In the spectra, there are sampling analysis results of 5, 10, 20, 30, 60, 120, and 240 min from top to bottom. […] According to this example, it can be noticed that it has to design a proper structure for keeping the recognizable sequence-CPP of drug carrier from cut by bio-enzyme(s) before the drug carrier achieving the target cell.
Subsequently, it is important to find out proper PEG length so that the PEG can provide protection to the recognizable sequence-CPP and the PEG will not impact the anchoring of the target cell to the recognizable sequence. FIG. 7B presents the trypsin digestion results of IL-R57F89, GPLSI-P17, PEG1K-GPLSI-P17, PEG2K-GPLSI-P17, PEG5K-GPLSI-P17, and PEG5K-GPLGI-P17. […] PEG1K-GPLSI-P17 is digested about 80% after 2 hours. After digesting for 4 hours, PEG2K-GPLSI-P17 and PEGSK-GPLSI-P17 are individually digested about 50% and 45%. It can be ensured that the PEG with proper length can efficiently keep the recognizable sequence-CPP from digested by bio-enzyme. And, when adjusting the PEG length with the length of the recognizable sequence-CPP, the protection of the PEG to the recognizable sequence-CPP can be optimized. For example, to those general recognizable sequence-CPP now, the proper length of PEG is about 1000-25000 Da.

[6] = after 24 hours, FIG. 4C, 5A, 5B
[7] = 0.1 g/mL trypsin, after 2 hours, FIG. 6A, 6B
[8] = 100 µM peptide, 1 g/mL MMP-2, after digesting for 2 hours, FIG. 4A, 4B

Compound: COc1cccc2c1C(=O)c1c(O)c3c(c(O)c1C2=O)C[C@@](O)(C(=O)CO)C[C@@H]3O[C@H]1C[C@H](N)[C@H](O)[C@H](C)O1 [DOX, doxorubicin]
- cytotoxicity to HepG2 cell (cell viability) [1]: do not present obvious cytotoxicity
- cell viability of HepG2 [2]: efficiently decrease the cell viability
- DOX fluorescence intensity in HepG2 tumor cell cytoplasm, change with incubating time [3]: increased

Compound: CC[C@H](C)[C@H](N)C(=O)N[C@@H](CC(C)C)C(=O)N1CCC[C@H]1C(=O)N[C@@H](Cc1c[nH]c2ccccc12)C(=O)N[C@@H](CCCCN)C(=O)N[C@@H](Cc1c[nH]c2ccccc12)C(=O)N1CCC[C@H]1C(=O)N[C@@H](Cc1c[nH]c2ccccc12)C(=O)N[C@@H](Cc1c[nH]c2ccccc12)C(=O)N1CCC[C@H]1C(=O)N[C@@H](Cc1c[nH]c2ccccc12)C(=O)N[C@@H](CCCNC(=N)N)C(=O)N[C@@H](CCCNC(=N)N)C(=O)O [IL, Indolicidin]
- cytotoxicity to HepG2 cell (cell viability) [1]: do not present obvious cytotoxicity

Compound: GPLGI-P17: recognizable sequence-CPP GPLG-ILPWRWRFFPWRR (SEQ ID NO: 10) (GPLGILPWRWRFFPWRR; the sequence is synthesized)
- digestion by MMP-2 [4, 6]: totally digested

Compound: GPLSILPWRWRFFPWRR [GPLSI-P17]
- digestion by trypsin [5, 7]: almost digested completely
- digestion by trypsin ([5]; after about 1 hour, FIG. 7B): almost digested completely

Compound: ILPWRWRFFPWRR [IL-R57F89]
- cytotoxicity to HepG2 cell (cell viability) [1]: do not present obvious cytotoxicity
- digestion by trypsin [5, 7]: almost digested completely
- digestion by trypsin ([5]; after about 1 hour, FIG. 7B): almost digested completely

Compound: P1: MMP-2 cut-able sequence WGPLGIAGQW
- digestion by MMP-2 [4, 8]: still can be digested by MMP-2

Compound: P2: MMP-2 cut-able sequence WGPLGIAGW
- digestion by MMP-2 [4, 8]: totally digested

Compound: P4: MMP-2 cut-able sequence WGPLGILPW
- digestion by MMP-2 [4, 6]: totally digested
